Laboratory results reported in patent US20240116926A1, “HETEROAROMATIC COMPOUNDS” (AstraZeneca AB, priority 2022, published 2024).
Converted amounts (≈) assume the structure as drawn.

How the values were obtained:
[1] = target: TEAD4(217-434) (Homo sapiens (Human), UniProt Q15561); test: TEAD4 FRET; type: binding; conditions: depalmitoylated, biotinylated TEAD4(217-434), FAM labelled Probe A, 120 min at 25° C.
Experimental: Compounds were dosed with a final DMSO concentration of 1% (v/v). Compound IC50 values were assessed following a 10-point, half-log10 dilution schema starting at 100 μM compound concentration. Specifically, human TEAD protein from TEAD4(217-434) was cloned into an overexpression vector, expressed as an N-terminal HIS-TEV-Avi-tagged fusion protein in E coli, and subsequently purified, then protein was chemically depalmitoylated & biotinylated. The assay was performed in 384-well LV plates (384-well black, medium binding, PS, HIBASE, GREINER #784076) and run in the presence and absence of the compound of interest. Each well of 5 μL assay mixture contained 10 mM Tris-HCl (pH 7.5), 100 mM NaCl, 0.05 mM EDTA, 1 mM TECP, 1% DMSO, 0.03% Pluronic acid F127, 20 nM dePal Avi TEAD4 (217-434)-depalmitoylated & biotinylated protein, 0.8 nM Streptavidin Terbium cryptate (CisBio #610SATLB), 625 nM FAM labelled Probe A. Reactions were incubated at 25° C. for 120 min before reading on a PHERASTAR FSX Plate Reader (337 520 490 HTRF module required) (Supplier BMP).
The data file from the PHERAstar FSX contains both the acceptor (520 nm) and donor channels (490 nm) (“Channel A”=acceptor channel (520 nm), “Channel B”=donor channel (490 nm)). The ratio of the donor and acceptor (Channel A/Channel B) is calculated within Genedata Assay Analyzer.
Probe A is 3′,6′-dihydroxy-3-oxo-N-{8-[2-(5-{2-[4-(trifluoromethyl)anilino]phenyl}-2H-tetrazol-2-yl)acetamido]octyl}-3H-spiro[[2]benzofuran-1,9′-xanthene]-5-carboxamide;

[2] = Solubility (thermodynamic, shake-flask); type: physicochemical; conditions: thermodynamic from solid; aqueous phosphate buffer (pH 7.4), 24 hours at 25° C.
Experimental: The thermodynamic solubility of a research compound is measured under standard conditions. It is a shake-flask approach that uses 10 mM DMSO solutions which are supplied from the Compound Managements liquid store and is a high throughput method. The dried compounds are equilibrated in an aqueous phosphate buffer (pH 7.4) for 24 hours at 25° C., the portion with the dissolved compound is then separated from the remains. The solutions are analyzed and quantified using UPLC/MS/MS, QC-samples are incorporated in each assay-run to ensure the quality of the assay.

[3] = system: MCF7-Luciferase cell line; test: Control reporter (MCF7-Luciferase); type: cell-based; conditions: MCF7-Luciferase cells, luciferase activity after 24 hours
Experimental: (iii) Control Reporter (MCF7-Luciferase)
MCF7-Luciferase cell line was obtained from […] (catalog number SC050-L) and was maintained in DMEM containing 10% fetal calf serum, 2 mM glutamine. Cells were grown in a humidified incubator at 37° C. with 5% CO2. Cells were distributed to flat bottom white polystyrene TC treated 384 well plates at a density of 3,500 cells/well in 30 μL. Cells were incubated for 24 hours at 37° C. with 5% CO2. Cells were acoustically dosed using an Echo 555, with compounds serially diluted in 100% DMSO. Plates were incubated for an additional 24 hours. Cells were examined for luciferase activity through the addition of 30 μL Bright-Glo luciferase (Promega catalog number E2620). Plates were incubated for 10 minutes at room temperature and luminescence was read using Tecan plate reader. The data obtained with each compound was exported to […] software to perform curve fitting analysis.

[4] = Protein binding measurements in human plasma (Hu PPB); type: in vitro ADME; conditions: equilibrium dialysis for 18 hours, fraction unbound
Experimental: The automated equilibrium dialysis assay in human plasma uses the RED (Rapid Equilibrium Dialysis) Device and sample handling. The assay generally runs over two to three days including delivery of results. After dialysis for 18 hours, plasma and buffer samples are prepared for analysis by liquid chromatography and mass spectrometry. Samples are generally tested in singlicates and quantified by LC/MSMS by using a 7-point calibration curve in plasma. The compounds are pooled together in plasma pools up to 10 compounds. Three reference compounds are used in each run, Propranolol, Metoprolol and Warfarin. Warfarin is used as a control in each pool and Propranolol and Metoprolol are placed randomly in each run. An in-house Excel macro is used for preparation of files for the robot and the mass spectrometer and is also used for the calculations of fraction unbound (fu %) in plasma.

[5] = system: MCF7-Tead cell line; test: TEAD reporter assay; type: cell-based; conditions: MCF7-Tead cells, luciferase activity after 24 hours
Experimental: MCF7-Tead cell line was obtained from BPS BIOSCIENCE (catalog number 60618) and was maintained in DMEM containing 10% fetal calf serum, 2 mM glutamine, and 400 μg/ml G418. Cells were grown in a humidified incubator at 37° C. with 5% CO2. Cells were distributed to flat bottom white polystyrene TC treated 384 well plates at a density of 3,500 cells/well in 30 uL. Cells were incubated for 24 hours at 37° C. with 5% CO2. Cells were acoustically dosed using an Echo 555, with compounds serially diluted in 100% DMSO. Plates were incubated for an additional 24 hours. Cells were examined for luciferase activity through the addition of 30 μL Bright-Glo luciferase (Promega catalog number E2620). Plates were incubated for 10 minutes at room temperature and luminescence was read using Tecan plate reader. The data obtained with each compound was exported to […] software to perform curve fitting analysis.

Sequence of TEAD4(217-434) (Q15561 217-434): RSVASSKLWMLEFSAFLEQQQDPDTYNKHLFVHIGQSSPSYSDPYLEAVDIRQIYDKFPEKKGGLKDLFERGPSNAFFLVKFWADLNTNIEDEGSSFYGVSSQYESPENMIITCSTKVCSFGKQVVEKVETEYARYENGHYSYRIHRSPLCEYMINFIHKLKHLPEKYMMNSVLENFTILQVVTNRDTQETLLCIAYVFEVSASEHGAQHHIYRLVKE

Row | Compound | IC50 [1] | solubility at 24 h [2] | IC50 [3] | Hu PPB (% free) [4] | IC50 [5]
1 | C=C(F)C(=O)N1C[C@H](F)[C@H](Nc2nnc(-c3ccc(C(F)(F)F)cc3)c3ncccc23)C1 [Example 5, 2-fluoro-1-((3S,4R)-3-fluoro-4-((8-(4-(trifluoromethyl)phenyl)pyrido[2,3-d]pyridazin-5-yl)amino)pyrrolidin-1-yl)prop-2-en-1-one] | 0.027 µM | 244 µM (≈ 110 µg/mL) | > 31.7 µM | 7.7 % free | 0.062 µM
2 | C=CC(=O)N1CC[C@H](Nc2nnc(-c3ccc(C(F)(F)F)cc3)c3cccc(F)c23)C1 [Example 13, (S)-1-(3-((8-fluoro-4-(4-(trifluoromethyl)phenyl)phthalazin-1-yl)amino)pyrrolidin-1-yl)prop-2-en-1-one] | 0.041 µM | 40 µM (≈ 17.2 µg/mL) | > 31.7 µM | 6.1 % free | 0.03 µM
3 | C=C(F)C(=O)N1C[C@H](F)[C@H](Nc2nnc(-c3ccc(C(F)(F)F)cc3)c3cccnc23)C1 [Example 6, 2-fluoro-1-((3S,4R)-3-fluoro-4-((5-(4-(trifluoromethyl)phenyl)pyrido[2,3-d]pyridazin-8-yl)amino)pyrrolidin-1-yl)prop-2-en-1-one] | 0.078 µM | 158 µM (≈ 71 µg/mL) | 29.9 µM | 6.2 % free | 0.297 µM
4 | C=CC(=O)N1C[C@H](O)[C@H](Nc2nnc(-c3ccc(C(F)(F)F)cc3)c3cccc(F)c23)C1 [Example 14, 1-((3R,4S)-3-((8-fluoro-4-(4-(trifluoromethyl)phenyl)phthalazin-1-yl)amino)-4-hydroxypyrrolidin-1-yl)prop-2-en-1-one] | 0.049 µM | 39 µM (≈ 17.4 µg/mL) | 19.2 µM | 7.7 % free | 0.026 µM
5 | C=CC(=O)N1CC[C@H](Nc2nnc(-c3ccc(C(F)(F)F)cc3)c3ncccc23)C1 [Example 7, (S)-1-(3-((8-(4-(trifluoromethyl)phenyl)pyrido[2,3-d]pyridazin-5-yl)amino)pyrrolidin-1-yl)prop-2-en-1-one] | 0.033 µM | 8.6 µM (≈ 3.56 µg/mL) | 28.4 µM | 9.0 % free | 0.081 µM
6 | C=CC(=O)N1C[C@@H](CO)[C@H](Nc2ncc(-c3ccc(C(F)(F)F)cc3)c3ncccc23)C1 [Example 24, 1-((3R,4S)-3-(hydroxymethyl)-4-((8-(4-(trifluoromethyl)phenyl)-1,6-naphthyridin-5-yl)amino)pyrrolidin-1-yl)prop-2-en-1-one] | 0.023 µM | 32 µM (≈ 14.2 µg/mL) | > 31.7 µM | 1.9 % free | 0.016 µM
7 | C=CC(=O)N1CC[C@H](Nc2ncc(-c3ccc(C(F)(F)F)cc3)c3nccnc23)C1 [Example 45, (S)-1-(3-((8-(4-(trifluoromethyl)phenyl)pyrido[3,4-b]pyrazin-5-yl)amino)pyrrolidin-1-yl)prop-2-en-1-one] | 0.012 µM | 13.6 µM (≈ 5.62 µg/mL) | 19 µM | 3.9 % free | 0.011 µM
8 | C=CC(=O)N1C[C@H](CO)[C@H](Nc2nnc(-c3ccc(C(F)(F)F)cc3)c3ccccc23)C1 [Example 49, 1-((3S,4S)-3-(hydroxymethyl)-4-((4-(4-(trifluoromethyl)phenyl)phthalazin-1-yl)amino)pyrrolidin-1-yl)prop-2-en-1-one] | 0.059 µM | 165 µM (≈ 72.9 µg/mL) | > 31.7 µM | 9.8 % free | 0.057 µM
9 | C=CC(=O)N1C[C@@H](CO)[C@H](Nc2nnc(-c3ccc(C(F)(F)F)cc3)c3cccc(F)c23)C1 [Example 15, 1-((3S,4R)-3-((8-fluoro-4-(4-(trifluoromethyl)phenyl)phthalazin-1-yl)amino)-4-(hydroxymethyl)pyrrolidin-1-yl)prop-2-en-1-one] | 0.025 µM | 135 µM (≈ 62.2 µg/mL) | 30.8 µM | 11.0 % free | 0.015 µM
10 | C=CC(=O)N1C[C@H](O)[C@H](Nc2nnc(-c3ccc(C(F)(F)F)cc3)c3cccnc23)C1 [Example 33, 1-((3S,4R)-3-hydroxy-4-((5-(4-(trifluoromethyl)phenyl)pyrido[2,3-d]pyridazin-8-yl)amino)pyrrolidin-1-yl)prop-2-en-1-one] | 0.068 µM | 365 µM (≈ 157 µg/mL) | > 31.7 µM | 17.0 % free | 0.107 µM
11 | C=CC(=O)N1CC[C@H](Nc2nnc(-c3ccc(C(F)(F)F)cn3)c3cccnc23)C1 [Example 16, (S)-1-(3-((5-(5-(trifluoromethyl)pyridin-2-yl)pyrido[2,3-d]pyridazin-8-yl)amino)pyrrolidin-1-yl)prop-2-en-1-one] | 0.27 µM | 114 µM (≈ 47.2 µg/mL) | > 31.7 µM | 25.0 % free | 0.354 µM
12 | C=CC(=O)N1C[C@H](CO)[C@@H](Nc2nnc(-c3ccc(C(F)(F)F)cc3)c3ccccc23)C1 [Example 22, 1-((3S,4R)-3-(hydroxymethyl)-4-((4-(4-(trifluoromethyl)phenyl)phthalazin-1-yl)amino)pyrrolidin-1-yl)prop-2-en-1-one] | 0.95 µM | 65 µM (≈ 28.8 µg/mL) | > 31.7 µM | 5.4 % free | 0.957 µM
13 | C=CC(=O)N[C@H]1CCN(c2nc(-c3ccc(C(F)(F)F)cc3)nc3ccccc23)C1 (racemic) [Comparative Example D, N-(1-{2-[4-(trifluoromethyl)phenyl]-4-quinazolinyl}-3-pyrrolidinyl)acrylamide, reference compound] | 2.9 µM | 0.6 µM (≈ 0.247 µg/mL) | > 31.7 µM | 0.2 % free | 1.78 µM
14 | C=CC(=O)N1C[C@H](O)[C@H](Nc2nnc(-c3ccc(C(F)(F)F)cc3)c3ncccc23)C1 [Example 32, 1-((3S,4R)-3-hydroxy-4-((8-(4-(trifluoromethyl)phenyl)pyrido[2,3-d]pyridazin-5-yl)amino)pyrrolidin-1-yl)prop-2-en-1-one] | 0.042 µM | 52 µM (≈ 22.3 µg/mL) | > 31.7 µM | 16.0 % free | 0.065 µM
15 | C=CC(=O)N1CCC[C@H](Nc2nnc(-c3ccc(C(F)(F)F)cc3)c3ccccc23)C1 [Example 50, (S)-1-(3-((4-(4-(trifluoromethyl)phenyl)phthalazin-1-yl)amino)piperidin-1-yl)prop-2-en-1-one] | 0.03 µM | < 1.6 µM | 29 µM | 5.4 % free | 0.187 µM
